# Assay results from article PMC8480901 (PLoS ONE, 2021).
# Where “and” joins values, the source holds several entries; their conditions need not be identical. Identical values can stand only once.
# Test system: J774.2 mouse macrophages
# Assay: LPS-induced cytokine and chemokine levels in J774.2 mouse macrophage cell supernatant (ELISA)
# Assay type: cell-based
# Details: for CXCL1 % reduction / CXCL1 [pg/mL] Mean / CXCL2 % reduction / CXCL2 [pg/mL] Mean / MMP9 % reduction / MMP9 [pg/mL] Mean: J774.2 cells; for CXCL1 % reduction / CXCL1 [pg/mL] Mean / CXCL2 % reduction / CXCL2 [pg/mL] Mean / MMP9 % reduction / MMP9 [pg/mL] Mean / CCl2, % reduction / CCl2, Mean / GM-CSF % reduction / GM-CSF Mean / IL-1β % reduction / IL-1β Mean / IL-6 % reduction / IL-6 Mean / TNF-α % reduction / TNF-α Mean / CCl2 / CXCL1 / GM-CSF / IL-1β / IL-6 / TNF-α: LPS; for CCl2, % reduction / CCl2, Mean / GM-CSF % reduction / GM-CSF Mean / IL-1β % reduction / IL-1β Mean / IL-6 % reduction / IL-6 Mean / TNF-α % reduction / TNF-α Mean / CCl2 / CXCL1 / GM-CSF / IL-1β / IL-6 / TNF-α: J774.2 supernatant; for CCl2 / CXCL1 / GM-CSF / IL-1β / IL-6 / TNF-α: individual replicate
smiles,measurement,setting,value
CC[C@H]1OC(=O)[C@H](C)[C@@H](O[C@H]2C[C@@](C)(OC)[C@@H](O)[C@H](C)O2)[C@H](C)[C@@H](O[C@@H]2O[C@H](C)C[C@H](N(C)C)[C@H]2O)[C@](C)(O)C[C@@H](C)CN(C)[C@H](C)[C@@H](O)[C@]1(C)O [Azithromycin],CXCL1 % reduction,compound 0.03 µM,-14%
same,CXCL1 [pg/mL] Mean,compound 0.03 µM,29 pg/mL
same,CXCL2 % reduction,compound 0.03 µM,36%
same,CXCL2 [pg/mL] Mean,compound 0.03 µM,20828 pg/mL
same,MMP9 % reduction,compound 0.03 µM,-31%
same,MMP9 [pg/mL] Mean,compound 0.03 µM,1243 pg/mL
same,CXCL1 % reduction,compound 0.1 µM,-29%
same,CXCL1 [pg/mL] Mean,compound 0.1 µM,33 pg/mL
same,CXCL2 % reduction,compound 0.1 µM,38%
same,CXCL2 [pg/mL] Mean,compound 0.1 µM,20316 pg/mL
same,MMP9 % reduction,compound 0.1 µM,-12%
same,MMP9 [pg/mL] Mean,compound 0.1 µM,1072 pg/mL
same,CXCL1 % reduction,compound 0.3 µM,-11%
same,CXCL1 [pg/mL] Mean,compound 0.3 µM,28 pg/mL
same,CXCL2 % reduction,compound 0.3 µM,29%
same,CXCL2 [pg/mL] Mean,compound 0.3 µM,23099 pg/mL
same,MMP9 % reduction,compound 0.3 µM,-7%
same,MMP9 [pg/mL] Mean,compound 0.3 µM,1027 pg/mL
same,CXCL1 % reduction,compound 1 µM,-18%
same,CXCL1 [pg/mL] Mean,compound 1 µM,30 pg/mL
same,CXCL2 % reduction,compound 1 µM,13%
same,CXCL2 [pg/mL] Mean,compound 1 µM,28283 pg/mL
same,MMP9 % reduction,compound 1 µM,-11%
same,CXCL1 % reduction,compound 3 µM,-30%
same,CXCL1 [pg/mL] Mean,compound 3 µM,33 pg/mL
same,CXCL2 % reduction,compound 3 µM,51%
same,CXCL2 [pg/mL] Mean,compound 3 µM,15868 pg/mL
same,MMP9 % reduction,compound 3 µM,-14%
same,MMP9 [pg/mL] Mean,compound 3 µM,1088 pg/mL
same,CXCL1 % reduction,compound 10 µM,-51%
same,CXCL1 [pg/mL] Mean,compound 10 µM,39 pg/mL
same,CXCL2 % reduction,compound 10 µM,45%
same,CXCL2 [pg/mL] Mean,compound 10 µM,18014 pg/mL
same,MMP9 % reduction,compound 10 µM,11%
same,MMP9 [pg/mL] Mean,compound 10 µM,860 pg/mL
same,CXCL1 % reduction,compound 30 µM,-135%
same,CXCL1 [pg/mL] Mean,compound 30 µM,60 pg/mL
same,CXCL2 % reduction,compound 30 µM,26%
same,CXCL2 [pg/mL] Mean,compound 30 µM,23980 pg/mL
same,MMP9 % reduction,compound 30 µM,47%
same,MMP9 [pg/mL] Mean,compound 30 µM,539 pg/mL
same,CXCL1 % reduction,compound 100 µM,-128%
same,CXCL1 [pg/mL] Mean,compound 100 µM,58 pg/mL
same,CXCL2 % reduction,compound 100 µM,35%
same,CXCL2 [pg/mL] Mean,compound 100 µM,21270 pg/mL
same,MMP9 % reduction,compound 100 µM,70%
same,MMP9 [pg/mL] Mean,compound 100 µM,332 pg/mL
same,"levels of the measured LPS-induced cytokines, chemokines, or MMP-9 in supernatants","J774.2 mouse macrophages, concentrations tested (0.03 to 10 μM shown)",little to no reduction
same,"CCl2, % reduction",0.03 µM,18%
same,"CCl2, Mean",0.03 µM,29824 pg/mL
same,GM-CSF % reduction,0.03 µM,64%
same,GM-CSF Mean,0.03 µM,507 pg/mL
same,IL-1β % reduction,0.03 µM,-40%
same,IL-1β Mean,0.03 µM,266 pg/mL
same,IL-6 % reduction,0.03 µM,9%
same,IL-6 Mean,0.03 µM,70233 pg/mL
same,TNF-α % reduction,0.03 µM,-11%
same,TNF-α Mean,0.03 µM,1517 pg/mL
same,CCl2,0.03 µM,28757.8 pg/mL and 30890.3 pg/mL
same,CXCL1,0.03 µM,31.2 pg/mL and 27.2 pg/mL
same,GM-CSF,0.03 µM,560.6 pg/mL and 452.6 pg/mL
same,IL-1β,0.03 µM,258.52 pg/mL and 274.336 pg/mL
same,IL-6,0.03 µM,75760 pg/mL and 64706 pg/mL
same,TNF-α,0.03 µM,1559.1 pg/mL and 1475.0 pg/mL
same,"CCl2, % reduction",0.1 µM,25%
same,"CCl2, Mean",0.1 µM,27461 pg/mL
same,GM-CSF % reduction,0.1 µM,56%
same,GM-CSF Mean,0.1 µM,616 pg/mL
same,IL-1β % reduction,0.1 µM,-16%
same,IL-1β Mean,0.1 µM,222 pg/mL
same,IL-6 % reduction,0.1 µM,-5%
same,IL-6 Mean,0.1 µM,81359 pg/mL
same,TNF-α % reduction,0.1 µM,-22%
same,TNF-α Mean,0.1 µM,1665 pg/mL
same,CCl2,0.1 µM,26336.9 pg/mL and 28584.6 pg/mL
same,CXCL1,0.1 µM,32.4 pg/mL and 33.7 pg/mL
same,GM-CSF,0.1 µM,657.0 pg/mL and 575.0 pg/mL
same,IL-1β,0.1 µM,219.952 pg/mL and 223.825 pg/mL
same,IL-6,0.1 µM,80523 pg/mL and 82194 pg/mL
same,TNF-α,0.1 µM,1716.4 pg/mL and 1614.2 pg/mL
same,"CCl2, % reduction",0.3 µM,20%
same,"CCl2, Mean",0.3 µM,29163 pg/mL
same,GM-CSF % reduction,0.3 µM,72%
same,GM-CSF Mean,0.3 µM,397 pg/mL
same,IL-1β % reduction,0.3 µM,9%
same,IL-1β Mean,0.3 µM,173 pg/mL
same,IL-6 % reduction,0.3 µM,8%
same,IL-6 Mean,0.3 µM,71113 pg/mL
same,TNF-α % reduction,0.3 µM,-8%
same,TNF-α Mean,0.3 µM,1475 pg/mL
same,CCl2,0.3 µM,28466.3 pg/mL and 29859.2 pg/mL
same,CXCL1,0.3 µM,27.1 pg/mL and 29.7 pg/mL
same,GM-CSF,0.3 µM,346.8 pg/mL and 446.6 pg/mL
same,IL-1β,0.3 µM,173.433 pg/mL and 172.638 pg/mL
same,IL-6,0.3 µM,72113 pg/mL and 70113 pg/mL
same,TNF-α,0.3 µM,1462.3 pg/mL and 1488.2 pg/mL
